In US20220211606A1, “LIQUID COMPOSITION FOR INFLUENCING THE MICROBIOTA ON A SUBJECT'S SKIN COMPRISING CHITOSAN” (Medoderm GmbH, priority 2019, published 2022):

Columns and labels:
Staphylococcus aureus [1] = experiment: Microbiome agar matrix test, surface pathogen; format: cell-based; details: 20 μl on agar surface; 37° C. over night; inoculum 2.0×10^6 CFU
Protocol: For the present experiment, the above microbiome organisms are seeded out on an agar plate. Afterwards the organisms are embedded in a special microbiome agar matrix to simulate the epidermis layers. […] In the next step the test formulation is applied onto small areas on the surface and the test setup is incubated at 37° C. over night. After incubation, growth of the matrix-embedded microbiome organisms and superficial Staphylococcus aureus is used for the assessment of an influence of the test formulation on the microbiome organisms. […] If the applied product also causes a growth inhibition of the microbiome organisms, the product is assessed to have negative influence on the human microbiome. A disinfectant agent (isopropanol:water 70:30) is used as […] to inhibit growth of the pathogen as well as the microbiome organisms. Buffer solution (used for dilution, if applied; 0.9% (w/w) NaCl in water) is used as a negative control. The sample volume of test formulation is 20 μl. The inoculum microbiome contains 2.0×10^6 CFU (colony forming units). The inoculum pathogen was set at 2.0×10^6 CFU.

[2] = tested on: endogenous skin microflora; experiment: Repopulation of disinfected human skin after contact with worn clothing (Rodac contact plates); format: in vivo; details: after 6 h test period, 10 minutes contact with worn clothing, sampled 1 h after removal
Protocol: The test germ corresponded to endogenous skin microflora. […] The sample size was approx. 50 cm^2 skin surface area and the sample volume 100 μl. Contact time was 0, 1 h, 2 h, 4 h, 6 h, after contact and 1 h after contact.
Rodac contact plates were used for sampling of microorganisms from human skin (upper arm) before and after treatment. The upper arm region was chosen to prevent contamination by touching and clothing. Disinfection was performed with 70% isopropanol.
After the 6 h test period, the test areas were exposed to worn clothing for 10 minutes, resulting in a typical transfer of microorganism from clothing to the skin surface (time point directly after contact). 1 h after removal of clothing the bacteria were collected from the test areas aby Rodac contact plates.

Staphylococcus aureus [3] = experiment: Repopulation of disinfected human skin (Rodac contact plates), pathogen; format: in vivo; details: upper arm disinfected with 70% isopropanol; 0, 1 h, 2 h, 4 h, 6 h; 100 μl on approx. 50 cm^2

CC(C)O [Disinfection, isopropanol]
growth of superficial Staphylococcus aureus (Staphylococcus aureus [1]): neither growth on the surface | microorganisms collected 1 h after exposure to worn clothing [2]: also showed pathogenic organisms (gram-negative bacteria=big colonies) | Staphylococcus aureus on the test area (Staphylococcus aureus [3]): only found on the “Disinfection” test area
